Measured values: US11174253B2, “Compound and pharmaceutical composition containing the same” (ALPHALA CO., LTD., priority 2017, dated 2021)

Assays:
Type in all cases: cell-based
[1] = system: SW480 colon adenocarcinoma cell line; assay: MTS cell viability assay (NCI-60 methodology), GI50/LC50, SW480; conditions: Homo sapiens, 48 h, SW480 cells, 2 days incubation with compound
Description: (§1) The number of treated cells was determined by GE InCell 2200 system, and treated cells were stained with Hoechst 33342 which can reveal the remained nucleus in culture plate. The proportion of survival cells then were calculated with the ratio of treated/non-treated cells. The growth inhibition/cytotoxic effect of selected compounds were evaluated by the following protocol of NCI-60 screening platform. The human tumor cell lines are plating on a 96 well plate in a fixed density 24 hr prior compound treatment. Compounds with multiple concentrations are then added into each well for further 48 hr incubation. Cell viability is assessed by MTS method and the potency of compound is represented by GI50 and LC50 calculated by MTS result.
(§2) The cell viability measurement is based on the NCI-60 screening methodology (Nat. Rev. Cancer 6, 813-823, 2006). Briefly, cells are inoculated into 96-well plates at the optimal plating density. After 24 h, one of the two plates for each cell line is processed to determine a time zero cell viability (Tz) by MTS assay (Promega). Compounds are added over a 2-fold serial dilution to provide a total five drug concentrations plus DMSO control. Plates are incubated for a further 2 days, then measured cell viability by MTS assay [control growth (C) and test growth in the presence of drug at the five concentration levels (Ti)]. Growth inhibition of 50% (GI50) is calculated from [(Ti−Tz)/(C−Tz)]×100=50, which is the drug concentration resulting in a 50% reduction of control cells during the drug incubation. The LC50 is calculated from [(Ti−Tz)/Tz]×100=−50, which is the drug concentration resulting in a 50% reduction at the end of the drug treatment as compared to that at the beginning.
(§3) Herein, Hep3B refers to hepatocellular carcinoma cell line, SW480 refers to colon adenocarcinoma cell line, and NCI-H460 refers to human lung cancer cell line.

[2] = system: Hep3B hepatocellular carcinoma cell line; assay: MTS cell viability assay (NCI-60 methodology), GI50/LC50, Hep3B; conditions: Homo sapiens, 48 h, Hep3B cells, 2 days incubation with compound
Description: as §1, §2, §3

[3] = system: hepatocellular carcinoma cell line Hep3B; assay: Growth inhibition of Hep3B cells, 48 hr treatment, Hoechst 33342 nucleus count (GE InCell 2200); conditions: Homo sapiens
Outline: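 Compound exposure lasted 48 hr at 37° C, 5% CO2. Surviving nuclei were counted after Hoechst 33342 staining, and survival was expressed as the treated/non-treated cell number ratio, including the ratio at 10 μM compound.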

[4] = system: NCI-H460 human lung cancer cell line; assay: MTS cell viability assay (NCI-60 methodology), GI50/LC50, NCI-H460; conditions: 48 h, NCI-H460 cells, 2 days incubation with compound
Description: as §1, §2, §3

[5] = Table 1, ratio of number of tumor cells treated with 10 μM compound to non-treated cells
[6] = Table 5, ratio of number of tumor cells treated with 10 μM compound to non-treated cells

SMILES	GI50 [1] [nM]	LC50 (NCI-60 lethal concentration, 50% net cell loss vs time zero) [1] [µM]	GI50 [2] [nM]	LC50 [2] [nM]	viability at 10 µM [3, 5] [%]	GI50 [4] [nM]	LC50 (concentration giving 50% net cell loss versus time zero, NCI-60 definition) [4] [µM]	viability at 10 µM ([3]; Table 3, ratio of number of tumor cells treated with 10 μM compound to non-treated cells) [%]	viability at 10 µM [3, 6] [%]
CCOc1ccc(-c2nnc(NC(=O)Cc3ccc4nc(N)sc4c3)s2)cc1 [Compound 1-2, 2-(2-aminobenzo[d]thiazol-6-yl)-N-(5-(4-ethoxyphenyl)-1,3,4-thiadiazol-2-yl)acetamide]	3550	8.93	160	480	61	860	1.24	–	–
CCOc1ccc(-c2nnc(NC(=O)Cc3ccc4nc(N)sc4c3)s2)c(OCC)c1 [Compound 1-18, 2-(2-aminobenzo[d]thiazol-6-yl)-N-(5-(2,4-diethoxyphenyl)-1,3,4-thiadiazol-2-yl)acetamide]	190	0.58	160	480	70	200	0.6	–	–
CCC(CC)Oc1ccccc1-c1nnc(NC(=O)Cc2ccc3nc(N)sc3c2)s1 [Compound 1-22, 2-(2-aminobenzo[d]thiazol-6-yl)-N-(5-(2-(pentan-3-yloxy)phenyl)-1,3,4-thiadiazol-2-yl)acetamide]	1230	–	90	8360	66	2670	–	–	–
CCCCOc1cc(OCC)ccc1-c1nnc(NC(=O)Cc2ccc3nc(N)sc3c2)s1 [Compound 1-23, 2-(2-aminobenzo[d]thiazol-6-yl)-N-(5-(2-butoxy-4-ethoxyphenyl)-1,3,4-thiadiazol-2-yl)acetamide]	520	0.52	480	480	71	580	0.58	–	–
CCOc1cnccc1-c1nnc(NC(=O)Cc2ccc3nc(N)sc3c2)s1 [Compound 1-25, 2-(2-aminobenzo[d]thiazol-6-yl)-N-(5-(3-ethoxypyridin-4-yl)-1,3,4-thiadiazol-2-yl)acetamide]	350	1.04	170	500	54	320	–	–	–
CCOCOc1cc(OCC)ccc1-c1nnc(NC(=O)Cc2ccc3nc(N)sc3c2)s1 [Compound 1-26, 2-(2-aminobenzo[d]thiazol-6-yl)-N-(5-(4-ethoxy-2-(ethoxymethoxy)phenyl)-1,3,4-thiadiazol-2-yl)acetamide]	210	0.63	160	490	59	200	0.59	–	–
CCOc1cc(OCC)c(-c2nnc(N(C)C(=O)Cc3ccc4nc(N)sc4c3)s2)cn1 [Compound 1-37, 2-(2-aminobenzo[d]thiazol-6-yl)-N-(5-(4,6-diethoxypyridin-3-yl)-1,3,4-thiadiazol-2-yl)-N-methylacetamide]	1260	–	840	1240	47	1350	–	–	–
Nc1nc2ccc(CC(=O)Nc3nc(-c4ccc(Br)cc4)c(-c4ccc(Br)cc4)s3)cc2s1 [Compound 3-10, 2-(2-aminobenzo[d]thiazol-6-yl)-N-(4,5-bis(4-bromophenyl)thiazol-2-yl)acetamide]	1210	7.08	510	1290	–	840	6.62	52	–
CCOc1ccc(-c2nc(NC(=O)c3ccc([N+](=O)[O-])s3)sc2Oc2ccccc2)cc1 [Compound 5-6, N-(4-(4-ethoxyphenyl)-5-phenoxythiazol-2-yl)-5-nitrothiophene-2-carboxamide]	2590	5.52	1100	4350	–	1170	3.99	–	42
O=C(Nc1nc(-c2ccc(Br)cc2)c(Oc2ccc(C(F)(F)F)cc2)s1)c1ccc([N+](=O)[O-])s1 [Compound 5-7, N-(4-(4-bromophenyl)-5-(4-(trifluoromethyl)phenoxy)thiazol-2-yl)-5-nitrothiophene-2-carboxamide]	320	2.8	630	1230	–	850	1.85	–	31
O=C(Nc1nc(-c2ccc(Br)cc2)c(Oc2cccc(C(F)(F)F)c2)s1)c1ccc([N+](=O)[O-])s1 [Compound 5-11, N-(4-(4-bromophenyl)-5-(3-(trifluoromethyl)phenoxy)thiazol-2-yl)-5-nitrothiophene-2-carboxamide]	7040	–	6540	–	–	630	3.98	–	21
CC(C)(C)c1ccc(-c2nc(NC(=O)c3ccc([N+](=O)[O-])s3)sc2Oc2ccccc2)cc1 [Compound 5-14, N-(4-(4-(tert-butyl)phenyl)-5-phenoxythiazol-2-yl)-5-nitrothiophene-2-carboxamide]	1510	–	340	7350	–	1720	–	–	50
CCCOc1ccc(-c2nc(NC(=O)c3ccc([N+](=O)[O-])s3)sc2Oc2cccc(C(F)(F)F)c2)cc1 [Compound 5-17, 5-nitro-N-(4-(4-propoxyphenyl)-5-(3-(trifluoromethyl)phenoxy)thiazol-2-yl)thiophene-2-carboxamide]	1260	2.41	300	1600	–	1160	2.29	–	37
O=C(Nc1nc(-c2ccc(Br)cc2)c(Oc2ccc(OC(F)(F)F)cc2)s1)c1ccc([N+](=O)[O-])s1 [Compound 5-18, N-(4-(4-bromophenyl)-5-(4-(trifluoromethoxy)phenoxy)thiazol-2-yl)-5-nitrothiophene-2-carboxamide]	2520	4.75	3090	4770	–	6400	–	–	–
O=C(Nc1nc(-c2ccc(Br)cc2)c(Oc2ccccc2C(F)(F)F)s1)c1ccc([N+](=O)[O-])s1 [Compound 5-19, N-(4-(4-bromophenyl)-5-(2-(trifluoromethyl)phenoxy)thiazol-2-yl)-5-nitrothiophene-2-carboxamide]	1510	3.94	1790	3910	–	2880	–	–	62
CC(C)(C)c1ccc(-c2nc(NC(=O)c3ccc([N+](=O)[O-])s3)sc2Oc2ccc(F)cc2)cc1 [Compound 5-20, N-(4-(4-(tert-butyl)phenyl)-5-(4-fluorophenoxy)thiazol-2-yl)-5-nitrothiophene-2-carboxamide]	880	3.73	790	2630	–	2760	8.34	–	62
CC(C)(C)c1ccc(-c2nc(NC(=O)c3ccc([N+](=O)[O-])s3)sc2Oc2cccc(F)c2)cc1 [Compound 5-22, N-(4-(4-(tert-butyl)phenyl)-5-(3-fluorophenoxy)thiazol-2-yl)-5-nitrothiophene-2-carboxamide]	2500	4.27	1430	4030	–	2090	4.53	–	30
CCOc1ccc(-c2nc(NC(=O)c3ccc([N+](=O)[O-])s3)sc2Oc2cccc(C(F)(F)F)c2)cc1 [Compound 5-23, N-(4-(4-ethoxyphenyl)-5-(3-(trifluoromethyl)phenoxy)thiazol-2-yl)-5-nitrothiophene-2-carboxamide]	6420	–	1220	3960	–	2490	4.43	–	30
